Measurements reported in patent US20100029615A1, “BENZIMIDAZOLE DERIVATIVES” (priority 2006, published 2010).
Structures can show the parent of a compound that is named as a salt.

biological target: T1, SMO (Mus musculus, UniProt P56726); experiment: Smoothened (SMO)/Sonic Hedgehog (SHh) Transient Transcriptional Activation Assay (Gli-luciferase reporter in C3H10T1/2 cells); assay type: cell-based, murine; conditions: 2 μM test compound, SHh 250 ng/ml, 20 hrs
T1 construct: endogenous in cells; host or cells: C3H10T1/2 (ATCC #CCL-226)
How it was run: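 Luminescence (Dual-Glo) measured after 20 h co-exposure at 37 °C to 250 ng/ml human SHh and compound at 2 uM down to 2 nM final. Cells were C3H10T1/2 carrying a transfected murine 10× Gli response-element luciferase construct with pEGFP, starved 20 h in 0.5% calf serum beforehand.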

T1 sequence (P56726 33-793): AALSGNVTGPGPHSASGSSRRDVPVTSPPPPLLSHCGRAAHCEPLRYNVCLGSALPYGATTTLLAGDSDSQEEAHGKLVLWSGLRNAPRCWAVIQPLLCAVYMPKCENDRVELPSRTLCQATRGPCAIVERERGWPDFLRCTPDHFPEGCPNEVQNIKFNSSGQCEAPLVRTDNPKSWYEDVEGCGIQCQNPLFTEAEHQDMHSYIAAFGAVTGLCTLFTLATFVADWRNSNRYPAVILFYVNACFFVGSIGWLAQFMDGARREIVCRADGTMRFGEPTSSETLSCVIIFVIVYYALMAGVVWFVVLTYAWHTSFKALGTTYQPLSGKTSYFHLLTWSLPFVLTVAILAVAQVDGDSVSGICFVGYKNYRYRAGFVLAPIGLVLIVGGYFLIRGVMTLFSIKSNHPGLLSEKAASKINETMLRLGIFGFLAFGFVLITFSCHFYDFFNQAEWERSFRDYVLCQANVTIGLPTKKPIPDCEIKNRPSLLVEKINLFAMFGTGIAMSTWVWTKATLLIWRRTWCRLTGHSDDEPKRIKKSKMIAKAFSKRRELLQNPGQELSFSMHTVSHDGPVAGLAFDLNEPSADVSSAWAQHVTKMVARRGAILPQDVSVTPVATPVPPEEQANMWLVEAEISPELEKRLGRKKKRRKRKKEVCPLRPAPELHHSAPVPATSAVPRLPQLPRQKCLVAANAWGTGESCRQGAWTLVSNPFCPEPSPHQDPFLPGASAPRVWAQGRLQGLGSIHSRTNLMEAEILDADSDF

How did the “SMO CELL % INHIBITION @ 2 μM” value turn out when Cl.O=C(N[C@H]1CCC[C@H](c2nc3ccccc3[nH]2)C1)c1ccc2c(c1)CN(CC1CC1)CC2 [Example 291, N-[(1S,3S)-3-(1H-benzimidazol-2-yl)cyclohexyl]-2-(cyclopropyl-methyl)-1,2,3,4-tetrahydroisoquino-line-7-carboxamide HCl] was run?
Its value is 85.2%.

same assay, conditions: 2 μM test compound, SHh 250 ng/ml, 20 hrs, HCl, 2 µM

Which “SMO CELL % INHIBITION @ 2 μM” value does the source give for O=C(N[C@@H]1CCC[C@H](c2nc3ccccc3[nH]2)C1)c1ccc2c(c1)CCCO2 [Example 266, N-[(1R,3S)-3-(1H-benzimidazol-2-yl)cyclohexyl] chromane-6-carboxamide HCl] here?
Its value is 102.05%.

same assay, conditions: C3H 10T1/2, 2 μM test compound, SHh 250 ng/ml, 20 hrs, read-out: SMO CELL % INHIBITION @ 2 μM

Which inhibition at 2 µM does the source give for O=C(N[C@@H]1CCC[C@H](c2nc3ccccc3[nH]2)C1)c1ccc2c(c1)CCCO2 [Example 265, N-[(1R,3S)-3-(1H-benzimidazol-2-yl)cyclohexyl] chromane-6-carboxamide] here?
The inhibition at 2 µM was 103%.

How did the inhibition at 2 µM turn out when O=C(N[C@@H]1CCC[C@H](c2nc3ccccc3[nH]2)C1)c1ccc2c(c1)CN(CC1CC1)CC2 [Example 267, N-[(1R,3S)-3-(1H-benzimidazol-2-yl)cyclohexyl]-2-(cyclopropyl-methyl)-1,2,3,4-tetrahydroiso-quinoline-7-carboxamide HCl] was run?
The inhibition at 2 µM was 103%.

For CN1[C@H](C(=O)N[C@@H]2CCC[C@H](c3nc4ccccc4[nH]3)C2)C[C@@H]2CCCC[C@@H]21 [Example 268, (2S,3aS,7aS)-N-[(1R,3S)-3-(1H-benzimidazol-2-yl)cyclohexyl]-1-methyloctahy-dro-1H-indole-2-carboxamide HCl], which inhibition at 2 µM is on record?
The inhibition at 2 µM was 50.7%.

COc1cc(OC)cc(C(=O)NC23CCCC(c4nc5cc(Cl)ccc5[nH]4)(C2)C3)c1 [Example 269, N-[5-(5-chloro-1H-benzimidazol-2-yl)bicyclo[3.1.1]hept-1-yl]-3,5-dimethoxybenz-amide] was tested. Which inhibition at 2 µM did it give?
Its inhibition at 2 µM is 107%.

With N#Cc1ccc(NC(=O)NC23CCCC(c4nc5cc(Cl)ccc5[nH]4)(C2)C3)cc1 [Example 270, 1-[5-(5-chloro-1H-benzimidazol-2-yl)bicyclo[3.1.1]hept-1-yl]-3-(4-cyanophenyl) urea] as the compound, how does the inhibition at 2 µM read?
Its inhibition at 2 µM is 107%.

O=C(NC12CCCC(c3nc4cc(Cl)ccc4[nH]3)(C1)C2)c1cc2c(cn1)OCCO2 [Example 271, N-[5-(5-chloro-1H-benzimidazol-2-yl)bicyclo[3.1.1]hept-1-yl]-2,3-dihydro[1,4]di-oxino[2,3-c]pyridine-7-carboxamide] was tested. Which inhibition at 2 µM did it give?
The inhibition at 2 µM was 84.7%.

O=C(NC12CCCC(c3nc4cc(Cl)ccc4[nH]3)(C1)C2)c1ccc2c(c1)OCCO2 [Example 272, N-[5-(5-chloro-1H-benzimidazol-2-yl)bicyclo[3.1.1]hept-1-yl]-2,3-dihydro-1,4-benzodioxine-6-carboxamide] was tested. Which inhibition at 2 µM did it give?
The inhibition at 2 µM was 110%.

For [N-]=[N+]=Nc1ccc(C(=O)NC23CCCC(c4nc5cc(C(F)(F)F)ccc5[nH]4)(C2)C3)cc1 [Example 273, 4-azido-N-{5-[5-(trifluoromethyl)-1H-benzimidazol-2-yl]bicyclo[3.1.1]hept-1-yl}benzamide], which inhibition at 2 µM is on record?
Its inhibition at 2 µM is 93.2%.

With O=C(NC12CCCC(c3nc4cc(C(F)(F)F)ccc4[nH]3)(C1)C2)c1ccc(C(=O)C(F)(F)F)cc1 [Example 274, 4-(trifluoroacetyl)-N-{5-[5-(trifluoromethyl)-1H-benzimidazol-2-yl]bicyclo[3.1.1]hept-1-yl}benzamide] as the compound, how does the inhibition at 2 µM read?
The inhibition at 2 µM was 105%.

O=C(NC12CCCC(c3nc4cc(C(F)(F)F)ccc4[nH]3)(C1)C2)c1ccc(C(=O)c2ccccc2)cc1 [Example 275, 4-benzoyl-N-{5-[5-(trifluoromethyl)-1H-benzimidazol-2-yl]bicyclo[3.1.1]hept-1-yl}benzamide] was tested. Which inhibition at 2 µM did it give?
The inhibition at 2 µM was 89%.

O=C(NC12CCCC(c3nc4cc(C(F)(F)F)ccc4[nH]3)(C1)C2)c1ccc2c(c1)CCCO2 [Example 276, N-{5-[5-(trifluoromethyl)-1H-benzimidazol-2-yl]bicyclo[3.1.1]hept-1-yl}chromane-6-carboxamide] was tested. Which inhibition at 2 µM did it give?
Its inhibition at 2 µM is 84.7%.

For [N-]=[N+]=Nc1ccc(C(=O)NC23CCCC(c4nc5ccccc5[nH]4)(C2)C3)cc1 [Example 277, 4-azido-N-[5-(1H-benzimidazol-2-yl)bicyclo[3.1.1]hept-1-yl]benzamide], which inhibition at 2 µM is on record?
The inhibition at 2 µM was 82.3%.

How did the inhibition at 2 µM turn out when O=C(NC12CCCC(c3nc4ccccc4[nH]3)(C1)C2)c1ccc(C(=O)c2ccccc2)cc1 [Example 278, N-[5-(1H-benzimidazol-2-yl)bicyclo[3.1.1]hept-1-yl]-4-benzoylbenz-amide] was run?
The inhibition at 2 µM was 99.9%.

For O=C(NC12CCCC(c3nc4ccccc4[nH]3)(C1)C2)c1ccc2c(c1)CCCO2 [Example 279, N-[5-(1H-benzimidazol-2-yl)bicyclo[3.1.1]hept-1-yl]chromane-6-carboxamide], which inhibition at 2 µM is on record?
The inhibition at 2 µM was 92.6%.

With CN1C(=O)COc2ccc(C(=O)N[C@@H]3CCC[C@H](c4nc5cc(C(F)(F)F)ccc5[nH]4)C3)cc21 [Example 280, 4-methyl-3-oxo-N-{(1R,3S)-3-[5-(trifluoromethyl)-1H-benzimidazol-2-yl]cyclohexyl}-3,4-dihydro-2H-1,4-benzoxazine-6-carboxamide HCl] as the compound, how does the inhibition at 2 µM read?
Its inhibition at 2 µM is 112%.

O=C(N[C@@H]1CCC[C@H](c2nc3cc(C(F)(F)F)ccc3[nH]2)C1)c1n[nH]c2c1CCCC2 [Example 281, N-{(1R,3S)-3-[5-(trifluoromethyl)-1H-benzimidazol-2-yl]cyclohexyl]-4,5,6,7-tetrahydro-1H-indazol-3-carboxamide HCl] was tested. Which inhibition at 2 µM did it give?
Its inhibition at 2 µM is 98.5%.

How did the inhibition at 2 µM turn out when Cc1cccc(=O)n1CC(=O)N[C@@H]1CCC[C@H](c2nc3cc(C(F)(F)F)ccc3[nH]2)C1 [Example 282, 2-(6-methyl-2-oxopyridin-1(2H)-yl)-N-{(1R,3S)-3-[5-(trifluoromethyl)-1H-benzimidazol-2-yl]cyclohexyl} acetamide HCl] was run?
The inhibition at 2 µM was 85.2%.

O=C(N[C@@H]1CCC[C@H](c2nc3cc(C(F)(F)F)ccc3[nH]2)C1)c1n[nH]c2c1CCCCCC2 [Example 283, N-{(1R,3S)-3-[5-(trifluoromethyl)-1H-benzimidazol-2-yl]cyclohexyl} 4,5,6,7,8,9-hexahydro-1H-cycloocta[c]-pyrazole-3-carboxamide HCl] was tested. Which inhibition at 2 µM did it give?
The inhibition at 2 µM was 106%.

How did the inhibition at 2 µM turn out when Cc1nn(C)c2sc(C(=O)N[C@@H]3CCC[C@H](c4nc5cc(C(F)(F)F)ccc5[nH]4)C3)cc12 [Example 284, 1,3-dimethyl-N-{(1R,3S)-3-[5-(trifluoromethyl)-1H-benzimidazol-2-yl]cyclohexyl}-1H-thieno[2,3-c]pyrazole-5-carboxamide HCl] was run?
Its inhibition at 2 µM is 94.9%.

For O=C1CCc2cc(C(=O)N[C@@H]3CCC[C@H](c4nc5cc(C(F)(F)F)ccc5[nH]4)C3)ccc2N1 [Example 285, 2-oxo-N-{(1R,3S)-3-[5-(trifluoromethyl)-1H-benzimidazol-2-yl]cyclohexyl}-1,2,3,4-tetrahydroquino-line-6-carboxamide HCl], which inhibition at 2 µM is on record?
Its inhibition at 2 µM is 111%.

With O=C1Cc2cc(C(=O)N[C@@H]3CCC[C@H](c4nc5cc(C(F)(F)F)ccc5[nH]4)C3)ccc2N1 [Example 286, 2-oxo-N-{(1R,3S)-3-[5-(trifluoromethyl)-1H-benzimidazol-2-yl]cyclohexyl} indoline-5-carboxamide HCl] as the compound, how does the inhibition at 2 µM read?
The inhibition at 2 µM was 114%.

How did the inhibition at 2 µM turn out when O=C(N[C@@H]1CCC[C@H](c2nc3cc(C(F)(F)F)ccc3[nH]2)C1)c1ccc2c(c1)CCNC2 [Example 287, N-{(1R,3S)-3-[5-(trifluoromethyl)-1H-benzimidazol-2-yl]cyclohexyl}-1,2,3,4-tetrahydroisoquino-line-6-carboxamide HCl] was run?
The inhibition at 2 µM was 107%.

Which inhibition at 2 µM does the source give for O=C(NC12CCCC(c3nc4cc(C(F)(F)F)ccc4[nH]3)(C1)C2)c1c(F)c(F)c(F)c(F)c1F [Example 288, 2,3,4,5,6-pentafluoro-N-{5-[5-(trifluoromethyl)-1H-benzimidazol-2-yl]bicyclo[3.1.1]hept-1-yl}benzamide] here?
Its inhibition at 2 µM is 93.3%.

How did the inhibition at 2 µM turn out when O=C(N[C@@H]1CCC[C@H](c2nc3cc(C(F)(F)F)ccc3[nH]2)C1)c1ccc2c(c1)CN(CC1CC1)CC2 [Example 290, 2-(cyclopropyl-methyl)-N-{(1R,3S)-3-[5-(trifluoromethyl)-1H-benzimidazol-2-yl]cyclohexyl}-1,2,3,4-tetrahydroisoquino-line-7-carboxamide HCl] was run?
The inhibition at 2 µM was 104%.

Which inhibition at 2 µM does the source give for COCCNc1ccc(C(=O)N[C@@H]2CCC[C@H](c3nc4cc(C(F)(F)F)ccc4[nH]3)C2)cn1 [Example 292, 6-[(2-methoxyethyl)amino]-N-{(1R,3S)-3-[5-(trifluoromethyl)-1H-benzimidazol-2-yl]cyclohexyl} nicotinamide HCl] here?
The inhibition at 2 µM was 104%.

CN(C)CCNc1ccc(C(=O)N[C@@H]2CCC[C@H](c3nc4cc(C(F)(F)F)ccc4[nH]3)C2)cn1 [Example 293, 6-{[2-(dimethylamino)ethyl]amino}-N-{(1R,3S)-3-[5-(trifluoromethyl)-1H-benzimidazol-2-yl]cyclohexyl}-nicotinamide HCl] was tested. Which inhibition at 2 µM did it give?
Its inhibition at 2 µM is 106%.

Which inhibition at 2 µM does the source give for O=C1COc2ccc(C(=O)N[C@@H]3CCCC(c4nc5ccccc5[nH]4)C3)cc2N1 (stereo partly drawn) [Example 294, N-[(1R)-3-(1H-benzimidazol-2-yl)cyclohexyl]-3-oxo-3,4-dihydro-2H-1,4-benzoxazine-6-carboxamide (+)-tartrate] here?
Its inhibition at 2 µM is 62.5%.

Which inhibition at 2 µM does the source give for O=C(N[C@@H]1CCC[C@H](c2nc3cc(C(F)(F)F)ccc3[nH]2)C1)c1ccc2c(c1)CCN(CC1CC1)C2 [Example 295] here?
The inhibition at 2 µM was 105%.

How did the inhibition at 2 µM turn out when O=C(N[C@@H]1CCC[C@H](c2nc3cc(Cl)ccc3[nH]2)C1)c1ccc2c(c1)CN(CC1CC1)CC2 [Example 296, N-[(1R,3S)-3-(5-chloro-1H-benzimidazol-2-yl)cyclohexyl]-2-(cyclopropyl-methyl)-1,2,3,4-tetrahydroisoquino-line-7-carboxamide (+)-tartrate] was run?
Its inhibition at 2 µM is 106%.

CN1C(=O)COc2ccc(C(=O)N[C@@H]3CCC[C@H](c4nc5ccccc5n4C)C3)cc21 [Example 297, 4-methyl-N-[(1R,3S)-3-(1-methyl-1H-benzimidazol-2-yl)cyclohexyl]-3-oxo-3,4-dihydro-2H-1,4-benzoxazine-6-carboxamide (+)-tartrate] was tested. Which inhibition at 2 µM did it give?
The inhibition at 2 µM was 106%.
